Assay results taken from article PMC11643744, “New Conjugates of Vancomycin with Cell-Penetrating Peptides—Synthesis, Antimicrobial Activity, Cytotoxicity, and BBB Permeability Studies” (Molecules, 2024).
Converted amounts (≈) assume the structure as drawn.

Key:
PAMPA-BBB assay = conditions: 20 h incubation; for R, mass retention: mean ± SEM; for Papp at 20 h, 20 µM: pig, PAMPA, pH 7.4, Pe, effective permeability coefficient, pH 7.4, mean ± SEM
From the text: This assay utilized a 96-well plate assembly consisting of a filter plate pre-coated with polar brain lipids (donor plate) and a receiver plate (acceptor plate). The phospholipid mixture used to coat the membrane was extracted from porcine polar brain lipids, with the following composition: 12.6% phosphatidylcholine, 33.1% phosphatidylethanolamine, 18.5% phosphatidylserine, 4.1% phosphatidylinositol, 0.8% phosphatidic acid, and 30.9% of other compounds, including cerebrosides, sulfatides, and pigments.
In each well of the donor filtration plate (Multiscreen Filter Plate, PVDF with a pore size of 0.45 µm), 5 µL of the phospholipid mixture in n-dodecane (20 mg/mL) was carefully applied to form the artificial membrane. After coating, 200 µL of phosphate-buffered saline (PBS at pH 7.4) containing 5% dimethyl sulfoxide (DMSO) as a co-solvent, and the test compound (at a concentration of 20 µM) was added to each well of the donor plate (in triplicate). […] The plate lid was then replaced and the resulting assembled donor–acceptor plates were incubated at room temperature for 20 h. After this time, the donor plate was removed and solutions from each well of both acceptor and donor plates were collected for further analysis. The concentrations of the tested compounds were determined by LC-MS. The analysis was conducted by UHPLC-MS system (Shimadzu Nexera X2 with LCMS-2020 detector) using a ReproSil Pure 120 ODS-3 column (Dr. Maisch GmbH, 100 × 2 mm, 2.4 µm particle size) with several gradients of ACN with 0.1% FA and 0.05% TFA at a flow rate of 0.3 mL/min. The eluted solution was monitored by an ESI-MS detector operated in a selected ion monitoring mode (SIM). […] CE=CD×VD+CA×VA/VD+VA

[1] = test system: normal human fibroblasts, BJ line (CRL-2522); assay: Neutral red cytotoxicity assay; conditions: 24 h
Experimental: Normal human fibroblasts, BJ line (CRL-2522™), Eagle’s Minimum Essential Medium (EMEM), and fetal bovine serum (FBS) were obtained from ATCC (Manassas, VA, USA). Cells were grown following ATCC guidelines in an EMEM medium supplemented with 10% FBS at 37 °C in a humidified atmosphere of 95% air and 5% CO2 in a HeraCell 150 incubator (Heraeus, Hanau, Germany).
The assay was performed as per previously published protocols with slight modifications. In brief, BJ cells were plated in 96-well tissue culture plates (Nest Scientific Biotechnology, Wuxi, China) at a density of 6 × 10^3 cells per well and allowed to attach for 24 h in EMEM supplemented with 10% FBS. After the incubation period, the medium was removed, and 10% dimethyl sulfoxide (DMSO)-treated cells (Sigma-Aldrich, St. Louis, MO, USA) were used as a positive control, while nontreated cells served as a negative control.
The cells were treated with peptides suspended in EMEM medium supplemented with 10% FBS and incubated for 24 h at 37 °C in a humidified atmosphere of 95% air and 5% CO2. After the incubation, the supernatants were discarded and replaced with 100 µL of non-supplemented EMEM containing 0.33% neutral red (Sigma-Aldrich) diluted 1:40. The cells were incubated for an additional 2 h at 37 °C. Following incubation, the neutral red medium was removed, and the cells were washed with 100 µL of phosphate-buffered saline (PBS) per well.
To extract the dye into the solution, the cells were treated with 150 µL of a solution containing 50% ethanol (Alchem, Torun, Poland), 49% distilled H2O, and 1% acetic acid (Alchem, Torun, Poland) and incubated under shaking at 37 °C for 10 min. Absorbance was measured at 540 nm using a Synergy H1 plate reader (BioTek Instruments, Winooski, VT, USA). The assay was performed in triplicate to ensure reproducibility.

E. faecalis ATCC 29212 = assay: microbe, parasite or virus in culture; type: cell-based, Enterococcus faecalis; conditions: reference strain; for MIC: read-out: MIC E. faecalis ATCC 29212
Experimental: (§1) The antimicrobial activity of the synthesized compounds was evaluated against four reference bacterial strains: Staphylococcus aureus (ATCC 29213), Enterococcus faecalis (ATCC 29212), Escherichia coli (ATCC 25922), and Pseudomonas aeruginosa (ATCC 27853), which are commonly used for determining antibacterial activity. In addition, two clinical strains, S. aureus (MRSA) and E. faecium (VRE), were included in the study. The bacterial strains were inoculated from Selectrol discs (Biomaxima SA, Lublin, Poland) onto blood agar (Graso Biotech, Starogard Gdański, Poland) and incubated at 37 °C for 24 h. Before testing, the strains were cultured aerobically on blood agar at 37 °C for 24 h.
(§2) The susceptibility of microorganisms to the synthesized compounds was determined using the broth microdilution assay, following the guidelines outlined by CLSI [30]. The final concentrations of the tested compounds in Mueller–Hinton broth, in 96-well plates (VWR International Sp. z o.o., Gdańsk, Poland), ranged from 0.125 to 256 mg/L. To prepare the bacterial suspension, bacteria from the overnight culture on blood agar were diluted in sterile 0.9% NaCl to achieve a turbidity equivalent to a 0.5 McFarland standard. The adjusted inoculum suspension was further diluted in Mueller–Hinton broth so that after inoculation, each well contained approximately 5 × 10^5 CFU/mL. Aliquots (5 µL) of bacterial suspension were added to each solution. The sterility control (containing the broth) and the growth control (containing the reference strain in broth without the tested compound) were also set up. The antibiotics vancomycin and gentamicin were used as a control. The plates were incubated at 37 °C under aerobic conditions. The results are expressed as the MIC of the tested compounds, which was defined as the lowest concentration at which no visible growth of bacteria (no turbidity) was observed. The assay was performed in triplicate.

[2] = test system: S. aureus MRSA (clinical isolate no 203); assay: microbe, parasite or virus in culture; type: cell-based, Staphylococcus aureus; conditions: methicillin-resistant clinical isolate no 203; read-out: MIC S. aureus MRSA
Experimental: as §1, §2

S. aureus ATCC 29213 = assay: microbe, parasite or virus in culture; type: cell-based, Staphylococcus aureus; conditions: reference strain; for MIC: read-out: MIC S. aureus ATCC 29213
Experimental: as §1, §2

E. coli ATCC 25922 = assay: microbe, parasite or virus in culture; type: cell-based, Escherichia coli; conditions: reference strain
Experimental: as §1, §2

[3] = test system: E. faecium VRE (clinical isolate UCK 7979384); assay: microbe, parasite or virus in culture; type: cell-based; conditions: vancomycin-resistant clinical isolate UCK 7979384; read-out: MIC E. faecium VRE
Experimental: as §1, §2

CN[C@H](CC(C)C)C(=O)N[C@H]1C(=O)N[C@@H](CC(N)=O)C(=O)N[C@H]2C(=O)N[C@H]3C(=O)N[C@H](C(=O)N[C@H](C(=O)NCCOCCOCCOCCn4cc(C(=O)N[C@@H](Cc5ccc(O)cc5)C(=O)N[C@@H](C)C(=O)N[C@@H](CCCNC(=N)N)C(=O)N[C@@H](C)C(=O)N[C@@H](C)C(=O)N[C@@H](C)C(=O)N[C@@H](CCCNC(=N)N)C(=O)N[C@@H](CCC(N)=O)C(=O)N[C@@H](C)C(=O)N[C@@H](CCCNC(=N)N)C(=O)N[C@@H](C)C(N)=O)nn4)c4cc(O)cc(O)c4-c4cc3ccc4O)[C@H](O)c3ccc(c(Cl)c3)Oc3cc2cc(c3O[C@@H]2O[C@H](CO)[C@@H](O)[C@H](O)[C@H]2O[C@H]2C[C@](C)(N)[C@H](O)[C@H](C)O2)Oc2ccc(cc2Cl)[C@H]1O [compound 10]
R, mass retention (PAMPA-BBB assay): 2.0 ± 0.6%
Papp at 20 h, 20 µM (PAMPA-BBB assay): 0.01 ± 0.003 ×10⁻⁶ cm/s
concentration above which cytotoxicity was shown [1]: above 16 µg/mL

CC[C@H](C)[C@H](NC(=O)[C@H](CCCCN)NC(=O)[C@H](CCCCN)NC(=O)[C@H](C)NC(=O)[C@H](CC(C)C)NC(=O)[C@H](C)NC(=O)[C@H](C)NC(=O)[C@H](CC(C)C)NC(=O)[C@H](C)NC(=O)[C@H](CCCCN)NC(=O)[C@H](CC(C)C)NC(=O)[C@H](CC(N)=O)NC(=O)[C@@H](NC(=O)[C@H](CCCCN)NC(=O)CNC(=O)[C@H](CC(C)C)NC(=O)[C@H](CC(C)C)NC(=O)[C@H](Cc1ccc(O)cc1)NC(=O)CNC(=O)[C@H](C)N)[C@@H](C)CC)C(=O)N[C@@H](CC(C)C)C(N)=O [compound 1, TP10]
MIC (E. faecalis ATCC 29212): 29.3 µM (≈ 63.9 µg/mL)
MIC [2]: 3.67 µM (≈ 8.01 µg/mL)
MIC (S. aureus ATCC 29213): 14.7 µM (≈ 32.1 µg/mL)
MIC (E. coli ATCC 25922): 14.7 µM (≈ 32.1 µg/mL)

CC[C@H](C)[C@H](NC(=O)[C@H](CCCCN)NC(=O)[C@H](CCCCN)NC(=O)[C@H](C)NC(=O)[C@H](CC(C)C)NC(=O)[C@H](C)NC(=O)[C@H](C)NC(=O)[C@H](CC(C)C)NC(=O)[C@H](C)NC(=O)[C@H](CCCCN)NC(=O)[C@H](CC(C)C)NC(=O)[C@H](CC(N)=O)NC(=O)[C@@H](NC(=O)[C@H](CCCCN)NC(=O)CNC(=O)[C@H](CC(C)C)NC(=O)[C@H](CC(C)C)NC(=O)[C@H](Cc1ccc(O)cc1)NC(=O)CNC(=O)[C@H](C)NC(=O)c1cn(CCOCCOCCOCCNC(=O)[C@H]2NC(=O)[C@H]3NC(=O)[C@H](NC(=O)[C@@H]4NC(=O)[C@H](CC(N)=O)NC(=O)[C@H](NC(=O)[C@@H](CC(C)C)NC)[C@H](O)c5ccc(c(Cl)c5)Oc5cc4cc(c5O[C@@H]4O[C@H](CO)[C@@H](O)[C@H](O)[C@H]4O[C@H]4C[C@](C)(N)[C@H](O)[C@H](C)O4)Oc4ccc(cc4Cl)[C@H]3O)c3ccc(O)c(c3)-c3c(O)cc(O)cc32)nn1)[C@@H](C)CC)C(=O)N[C@@H](CC(C)C)C(N)=O [compound 2]
R, mass retention (PAMPA-BBB assay): 10.0 ± 0.6%
Papp at 20 h, 20 µM (PAMPA-BBB assay): 0.187 ×10⁻⁶ cm/s
concentration above which cytotoxicity was shown [1]: above 64 µg/mL

CN[C@H](CC(C)C)C(=O)N[C@H]1C(=O)N[C@@H](CC(N)=O)C(=O)N[C@H]2C(=O)N[C@H]3C(=O)N[C@H](C(=O)N[C@H](C(=O)NCCSSCCn4cc(C(=O)N[C@@H](CCCNC(=N)N)C(=O)N[C@@H](CCCNC(=N)N)C(=O)N[C@@H](CCCNC(=N)N)C(=O)N[C@@H](CCCNC(=N)N)C(=O)N[C@@H](CCCNC(=N)N)C(=O)N[C@@H](CCCNC(=N)N)C(=O)N[C@@H](CCCNC(=N)N)C(=O)N[C@@H](CCCNC(=N)N)C(=O)N[C@@H](CCCNC(=N)N)C(N)=O)nn4)c4cc(O)cc(O)c4-c4cc3ccc4O)[C@H](O)c3ccc(c(Cl)c3)Oc3cc2cc(c3O[C@@H]2O[C@H](CO)[C@@H](O)[C@H](O)[C@H]2O[C@H]2C[C@](C)(N)[C@H](O)[C@H](C)O2)Oc2ccc(cc2Cl)[C@H]1O [compound 17]
R, mass retention (PAMPA-BBB assay): 20.7 ± 0.3%
MIC E. faecalis ATCC 29212 (E. faecalis ATCC 29212): 8 µg/mL (≈ 2.59 µM)
MIC (E. faecalis ATCC 29212): 2.59 µM (≈ 7.99 µg/mL)
MIC S. aureus ATCC 29213 (S. aureus ATCC 29213): 4 µg/mL (≈ 1.3 µM)
MIC (S. aureus ATCC 29213): 1.30 µM (≈ 4.01 µg/mL)
MIC (E. coli ATCC 25922): >83 µM
MIC E. coli ATCC 25922 (E. coli ATCC 25922): >256 µg/mL

CN[C@H](CC(C)C)C(=O)N[C@H]1C(=O)N[C@@H](CC(N)=O)C(=O)N[C@H]2C(=O)N[C@H]3C(=O)N[C@H](C(=O)N[C@H](C(=O)O)c4cc(O)cc(O)c4-c4cc3ccc4O)[C@H](O)c3ccc(c(Cl)c3)Oc3cc2cc(c3O[C@@H]2O[C@H](CO)[C@@H](O)[C@H](O)[C@H]2O[C@H]2C[C@](C)(NC(=O)CCOCCOCCOCCOCCn3cc(C(=O)N[C@@H](Cc4ccc(O)cc4)C(=O)N[C@@H](C)C(=O)N[C@@H](CCCNC(=N)N)C(=O)N[C@@H](C)C(=O)N[C@@H](C)C(=O)N[C@@H](C)C(=O)N[C@@H](CCCNC(=N)N)C(=O)N[C@@H](CCC(N)=O)C(=O)N[C@@H](C)C(=O)N[C@@H](CCCNC(=N)N)C(=O)N[C@@H](C)C(N)=O)nn3)[C@H](O)[C@H](C)O2)Oc2ccc(cc2Cl)[C@H]1O [compound 11]
R, mass retention (PAMPA-BBB assay): 32.7 ± 0.9%
Papp at 20 h, 20 µM (PAMPA-BBB assay): 0.066 ± 0.007 ×10⁻⁶ cm/s
concentration above which cytotoxicity was shown [1]: > 64 µg/mL

C#CC(=O)N[C@@H](Cc1ccc(O)cc1)C(=O)NCC(=O)N[C@@H](CCCNC(=N)N)C(=O)N[C@@H](CCCCN)C(=O)N[C@@H](CCCCN)C(=O)N[C@@H](CCCNC(=N)N)C(=O)N[C@@H](CCCNC(=N)N)C(=O)N[C@@H](CCC(N)=O)C(=O)N[C@@H](CCCNC(=N)N)C(=O)N[C@@H](CCCNC(=N)N)C(=O)N[C@@H](CCCNC(=N)N)C(N)=O [compound 4]
R, mass retention (PAMPA-BBB assay): 3.3 ± 0.7%
MIC [3]: 19.9 µM (≈ 32.1 µg/mL)
MIC (E. faecalis ATCC 29212): 159 µM (≈ 256 µg/mL)
MIC [2]: 19.9 µM (≈ 32.1 µg/mL)
MIC (S. aureus ATCC 29213): 4.97 µM (≈ 8.01 µg/mL)
effect on cell viability ([1]; across the tested concentration range): did not significantly affect cell viability
MIC (E. coli ATCC 25922): 79.5 µM (≈ 128 µg/mL)

C#CC(=O)N[C@@H](CCCNC(=N)N)C(=O)N[C@@H](CCCNC(=N)N)C(=O)N[C@@H](CCCNC(=N)N)C(=O)N[C@@H](CCCNC(=N)N)C(=O)N[C@@H](CCCNC(=N)N)C(=O)N[C@@H](CCCNC(=N)N)C(=O)N[C@@H](CCCNC(=N)N)C(=O)N[C@@H](CCCNC(=N)N)C(=O)N[C@@H](CCCNC(=N)N)C(N)=O [compound 14]
R, mass retention (PAMPA-BBB assay): 8.0 ± 1.2%
MIC [3]: 21.7 µM (≈ 32 µg/mL)
MIC (E. faecalis ATCC 29212): 87 µM (≈ 128 µg/mL)
MIC [2]: 2.71 µM (≈ 4 µg/mL)
MIC (S. aureus ATCC 29213): 21.7 µM (≈ 32 µg/mL)
MIC (E. coli ATCC 25922): 43 µM (≈ 63.4 µg/mL)
